Results from patent publication US12473259B2, “Anhydrous crystal of monosodium n-(2-ethylsulfonylamino-5-trifluoromethyl-3-pyridyl)cyclohexane carboxamide” (ISHIHARA SANGYO KAISHA, LTD., priority 2019, dated 2025).

Experiments:
Type in all cases: physicochemical
[1] = Tapped density and bulk density, powder tester (Japanese Pharmacopoeia Method 3); conditions: 100 mL cylindrical container; for Tapped density: 100 times per 3 minutes
Description: Regarding the anhydrous crystal obtained in Production Example 1 and the monohydrous crystal as a raw material, the bulk density and the tapped density were measured with a powder tester type A.B.D-72 (TSUTSUI SCIENTIFIC INSTRUMENTS Co., Ltd.) in accordance with of Method 3 (measuring vessel) of Determination of Bulk Density and Method 3 of Determination of Tapped Density mentioned in the Japanese Pharmacopoeia, Seventeenth Edition. Specifically, regarding the bulk density, an excess of a sample was freely fallen through the apparatus into a cylindrical container (volume of 100 mL, inner diameter of 5.05 cm) until a container overflowed. Then, the edge of a spatula standing vertically in contact with the top surface of the container was moved smoothly, and an excess of the sample was carefully slashed off from the top surface of the container. The bulk density was calculated by dividing the mass (g) of the sample in the container by a volume of 100 mL. The tapped density was, specifically, measured as a density when the sample was filled in a cylindrical container (volume of 100 mL, inner diameter of 5.05 cm) in the same manner as for the bulk density measurement and was fallen using the apparatus at a rate of 100 times per 3 minutes.

[2] = Measurement of solubility in distilled water (HPLC); conditions: room temperature, shaken 1 hour, saturated solution
Description: After 10 mL of distilled water was put into 0.5 g of the anhydrous crystal obtained in Production Example 1 or the monohydrous crystal as a raw material, the solution was horizontally shaken with a shaker (manufactured by TAITEC CORPORATION, STRONG SHAKER SR-2DS) at room temperature and at a shaking speed of 150 strokes/min and a shaking width of 4 cm/stroke for 1 hour. Thereafter, a precipitate was confirmed to be remained, and centrifugation (3,000 rpm×10 minutes) was performed to take a supernatant, followed by filtration using a membrane filter to obtain a supernatant of a saturated solution. 2 mL of the supernatant of the saturated solution was weighed in a 20 mL volumetric flask to make a constant volume with a mobile phase, and this was used as a sample solution, followed by measurement of solubility under the following HPLC conditions: • Analyzer: HPLC ACQUITY Arc system (manufactured by Waters K. K.) • Mobile phase: acetonitrile/water/acetic acid=50/49.5/0.5, v/v • Detector: ultraviolet spectrophotometer λ=276 nm (1 Au/V) • Column: Nucleosil 5 C18 (4.6 φ×250 mm) (manufactured by MACHEREY-NAGEL GmbH & Co. KG) • Column temperature: 50° C. • Flow rate: 1.075 ml/min • Injection volume: 20 μL • Measurement time: 40 minutes

[3] = BET specific surface area by nitrogen adsorption method; conditions: BET multipoint method, nitrogen gas
Description: The specific surface area was measured by a nitrogen adsorption method using Flow sorb II 2300 (Shimadzu Corporation). Specifically, the BET specific surface area was measured by a BET multipoint method by nitrogen adsorption under the following conditions: • Sample amount: 0.2 g • Deaeration condition: 150° C. (anhydrous), 80° C. (monohydrous) • Adsorption gas: nitrogen gas

[4] = Observation of particle shape by scanning electron microscopy; conditions: SEM micrograph
From the text: Micrographs of particles of the anhydrous crystal of the present invention and the monohydrous crystal were taken using scanning electron microscopy (SEM) (Hitachi, Ltd., S-3200N).

[5] = Long diameter, short diameter and aspect ratio by particle shape image analyzer PITA-3; conditions: for Aspect ratio (d50): long diameter (d50)/short diameter (d50)
Description: Regarding the anhydrous crystal obtained in Production Example 1 and the monohydrous crystal as a raw material, the long diameter and the short diameter were measured using a particle shape image analyzer PITA-3 (SEISHIN ENTERPRISE Co., Ltd.), and the aspect ratio was calculated.
The longest diameter in the particle was regarded as the long diameter, and the shortest diameter in the particle was regarded as the short diameter. The aspect ratio was calculated by the following formula: Aspect ratio=long diameter/short diameter
Specifically, measurement was performed under the following conditions:
Carrier liquid: n-hexane+lecithin
Dispersion condition: ultrasonic wave for 5 minutes
Flow rate of first carrier liquid: 500.00 μL/second
Flow rate of second carrier liquid: 500.00 μL/second
Flow rate of sample dispersion liquid: 0.42 μL/second
Observation magnification: 10 times
Light control filter: None
Number of particles observed: 6,992 (anhydrous crystal) or 9,628 (monohydrous crystal)

[6] = Angle of repose (Japanese Pharmacopoeia); conditions: compared with the monohydrous crystal
Description: Regarding the particles of the anhydrous crystal obtained in Production Example 1 and the monohydrous crystal, the angle of repose was measured in accordance with Angle of repose mentioned in the Japanese Pharmacopoeia, Seventeenth Edition.

Bulk density [1] [g/mL] | Tapped density [1] [g/mL] | solubility at 1 h ([2]; water, thermodynamic from solid) [µg/mL] | Specific surface area [3] [m^2/g] | Particle shape [4] | Long diameter (d50) [5] [μm] | Short diameter (d50) [5] [μm] | Aspect ratio (d50) [5] | Solubility [2] [µg/mL] | Compound | Angle of repose [6]
0.18 | 0.207 | 160 | 4.36 | needle like | 15.80 | 3.19 | 4.95 |  | CCS(=O)(=O)Nc1ncc(C(F)(F)F)cc1NC(=O)C1CCCCC1.[Na] [Monohydrous crystal, monosodium N-(2-ethylsulfonylamino-5-trifluoromethyl-3-pyridyl)cyclohexane carboxamide] | 
0.289 | 0.367 |  | 3.38 | massive | 6.09 | 3.34 | 1.82 | 204 | CCS(=O)(=O)Nc1ncc(C(F)(F)F)cc1NC(=O)C1CCCCC1.[Na] [Anhydrous crystal, monosodium N-(2-ethylsulfonylamino-5-trifluoromethyl-3-pyridyl)cyclohexane carboxamide] | smaller than the angle of repose of the particle of the monohydrous crystal
